Values of other authors, collected in patent publication US11304902B2, “Pharmaceutical compositions, preparation and uses thereof” (CURADIGM SAS, priority 2014, dated 2022).

Test system: CYP1A
Settings: human CYP enzyme

In the case of `COc1ccc(-c2cc(=O)c3c(O)cc(O)cc3o2)cc1` [Acacetin, acacetin], the “role towards CYP1A (substrate / inhibitor / inducer)” value is listed as “Inhibitor”.
